In US5604203A, “Analogs of peptide YY and uses thereof” (University of Cincinnati, priority 1994, dated 1997):
Like-named read-outs stand apart in the source and are kept apart here. Values belong to the molecule of their own block, whether it stands above or below them. Square brackets hold non-standard residues; d marks the D form. Ends that are not written are not given here. Peptide text beside a SMILES is read from it. Bip = N[C@@H](Cc1ccc(-c2ccccc2)cc1)C(=O)O; 2Nal = N[C@@H](Cc1ccc2ccccc2c1)C(=O)O; Tic = O=C(O)[C@@H]1Cc2ccccc2CN1; 2Thi = N[C@@H](Cc1cccs1)C(=O)O

Assays:
[1] = target: T1, intestinal PYY-preferring receptors (Rattus norvegicus, UniProt Q9ERC0)
T1 sequence (Q9ERC0 1-381): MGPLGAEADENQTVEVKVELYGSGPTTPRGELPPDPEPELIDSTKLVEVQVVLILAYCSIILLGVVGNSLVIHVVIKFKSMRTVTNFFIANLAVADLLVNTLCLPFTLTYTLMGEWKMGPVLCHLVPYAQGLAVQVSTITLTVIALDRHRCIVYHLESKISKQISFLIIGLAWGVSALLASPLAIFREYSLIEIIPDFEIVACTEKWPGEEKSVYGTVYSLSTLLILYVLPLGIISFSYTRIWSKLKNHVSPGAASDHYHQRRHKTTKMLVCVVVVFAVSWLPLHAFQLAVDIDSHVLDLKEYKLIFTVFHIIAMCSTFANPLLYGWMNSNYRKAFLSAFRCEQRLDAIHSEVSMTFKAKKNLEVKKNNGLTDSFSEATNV
Experimental: Bound and free peptides were separated by centrifugation at 20,000×g for 10 min.
All points in the binding experiments are the mean of at least three experiments performed in duplicate.

[2] = target: PYY receptor of rat jejunal epithelial plasma membranes (rat); test: competition with 125I-PYY on rat jejunal membranes
[3] = target: PYY receptor of rat jejunal epithelial plasma membranes (rat); test: competition with 0.05 nM 125I-PYY on rat jejunal epithelial plasma membranes
[4] = target: PYY receptor of rat jejunal epithelial plasma membranes (rat); test: competitive binding, done as described above (125I-PYY, rat jejunal membranes)
[5] = BINDING IC50 (nM), Table 1, 125I-PYY, rat jejunal membranes, mean of three separate experiments
[6] = IC50 (nM), Table 2, receptor binding data
[7] = IC50 (nM), Table 3, binding activity

IC50 [1, 5]: 1.12 nM
IC50 [1, 6]: 0.08 nM
Molecule: CC(=O)N[C@@H](C)C(=O)N[C@@H](CO)C(=O)N[C@@H](CC(C)C)C(=O)N[C@@H](CCCNC(=N)N)C(=O)N[C@@H](Cc1cnc[nH]1)C(=O)N[C@@H](Cc1ccc(O)cc1)C(=O)N[C@@H](CC(C)C)C(=O)N[C@@H](CC(N)=O)C(=O)N[C@@H](CC(C)C)C(=O)N[C@H](C(=O)N[C@H](C(=O)N[C@@H](CCCNC(=N)N)C(=O)N[C@@H](CCC(N)=O)C(=O)N[C@@H](CCCNC(=N)N)C(=O)N[C@@H](Cc1ccc(O)cc1)C(N)=O)[C@@H](C)O)C(C)C [N-α-Ac-PYY(22-36), N-α-Ac-A S L R H Y L N L V T R Q R Y--NH2]

IC50 [1, 5]: 199 nM
Molecule: ASLRHYENLVTRQRY-NH2 [[Glu^28]PYY(22-36), A S L R H Y [Glu] N L V T R Q R Y--NH2]

IC50 [1, 5]: 71 nM
Molecule: ASLRHYLNLVARQRY-NH2 [[Ala^32]PYY(22-36), A S L R H Y L N L V [Ala] R Q R Y--NH2]

IC50 [1, 7]: 0.1 nM
Molecule: Ac-YSLRHFLNLVTRQRY-NH2 [Peptide 910, N-α-Ac-[Tyr] S L R H [Phe] L N L V T R Q R Y--NH2]

IC50 [2]: 0.15 nM
Molecule: N-α-Ac-[Phe^27 ]PYY(25-36) (peptide)

IC50 [3]: 2 nM
Molecule: NPY (neuropeptide Y) (ligand)

IC50 [3]: 4 nM
Molecule: [im-DNP-His^26 ]PYY (peptide)

IC50 [2]: 0.22 nM
B1: N-α-Ac-[Bth^27 ]PYY(22-36) (peptide)
peptide: ASLRHXLNLVTRQRY
HELM: PEPTIDE1{[ac].A.S.L.R.H.[O=C([C@H](Cc1csc2ccccc12)N[*:1])[*:2]].L.N.L.V.T.R.Q.R.Y.[am]}$$$$V2.0
SMILES: CC(=O)N[C@@H](C)C(=O)N[C@@H](CO)C(=O)N[C@@H](CC(C)C)C(=O)N[C@@H](CCCNC(=N)N)C(=O)N[C@@H](Cc1c[nH]cn1)C(=O)N[C@@H](Cc1csc2ccccc12)C(=O)N[C@@H](CC(C)C)C(=O)N[C@@H](CC(N)=O)C(=O)N[C@@H](CC(C)C)C(=O)N[C@H](C(=O)N[C@H](C(=O)N[C@@H](CCCNC(=N)N)C(=O)N[C@@H](CCC(N)=O)C(=O)N[C@@H](CCCNC(=N)N)C(=O)N[C@@H](Cc1ccc(O)cc1)C(N)=O)[C@@H](C)O)C(C)C

IC50 [3]: 199 nM
Molecule: ASLRHYENLVTRQRY-NH2 [[Glu^28 ]PYY(22-36)]

IC50 [3]: > 10000 nM
Molecule: AALRHYLNLVARQRY-NH2 [[Ala^23,32 ]PYY(22-36)]

IC50 [2]: 4.46 nM
Molecule: Ac-ASLRH[Bip]LNLVTRQRY-NH2 [N-α-Ac-[Bip^27 ]PYY(22-36)]

IC50 [3]: 71 nM
Molecule: ASLRHYLNLVARQRY-NH2 [[Ala^32 ]PYY(22-36)]

IC50 [2]: 4.5 nM
Molecule: Ac-ASLRH[Tic]LNLVTRQRY-NH2 [N-α-Ac-[Tic^27 ]PYY(22-36)]

IC50 [2]: 0.1 nM
Molecule: Ac-ASLRHWLNLVTRQRY-NH2 [N-α-Ac-[Trp^27 ]PYY(22-36)]

More lines, now with the values behind:

Molecule: CC(=O)N[C@@H](C)C(=O)N[C@@H](CO)C(=O)N[C@@H](CC(C)C)C(=O)N[C@@H](CCCNC(=N)N)C(=O)N[C@@H](Cc1c[nH]cn1)C(=O)N[C@@H](Cc1ccc(Cl)cc1)C(=O)N[C@@H](CC(C)C)C(=O)N[C@@H](CC(N)=O)C(=O)N[C@@H](CC(C)C)C(=O)N[C@H](C(=O)N[C@H](C(=O)N[C@@H](CCCNC(=N)N)C(=O)N[C@@H](CCC(N)=O)C(=O)N[C@@H](CCCNC(=N)N)C(=O)N[C@@H](Cc1ccc(O)cc1)C(N)=O)[C@@H](C)O)C(C)C [Peptide 904, N-α-Ac-A S L R H [Pcp] L N L V T R Q R Y--NH2] (HELM PEPTIDE1{[ac].A.S.L.R.H.[O=C([C@H](Cc1ccc(Cl)cc1)N[*:1])[*:2]].L.N.L.V.T.R.Q.R.Y.[am]}$$$$V2.0)
IC50 [1, 7]: 1.58 nM

Molecule: CC(=O)N[C@@H](C)C(=O)N[C@@H](CO)C(=O)N[C@@H](CC(C)C)C(=O)N[C@@H](CCCNC(=N)N)C(=O)N[C@@H](Cc1c[nH]cn1)C(=O)N[C@@H](Cc1csc2ccccc12)C(=O)N[C@@H](CC(C)C)C(=O)N[C@@H](CC(N)=O)C(=O)N[C@@H](CC(C)C)C(=O)N[C@H](C(=O)N[C@H](C(=O)N[C@@H](CCCNC(=N)N)C(=O)N[C@@H](CCC(N)=O)C(=O)N[C@@H](CCCNC(=N)N)C(=O)N[C@@H](Cc1ccc(O)cc1)C(N)=O)[C@@H](C)O)C(C)C [Peptide 905, N-α-Ac-A S L R H [Bth] L N L V T R Q R Y--NH2] (HELM PEPTIDE1{[ac].A.S.L.R.H.[O=C([C@H](Cc1csc2ccccc12)N[*:1])[*:2]].L.N.L.V.T.R.Q.R.Y.[am]}$$$$V2.0)
IC50 [1, 6]: 0.22 nM

Molecule: CC(=O)N[C@@H](C)C(=O)N[C@@H](CO)C(=O)N[C@@H](CC(C)C)C(=O)N[C@@H](CCCN=C(N)N)C(=O)N[C@@H](Cc1c[nH]cn1)C(=O)N[C@@H](Cc1ccc(-c2ccccc2)cc1)C(=O)N[C@@H](CC(C)C)C(=O)N[C@@H](CC(N)=O)C(=O)N[C@@H](CC(C)C)C(=O)N[C@H](C(=O)N[C@H](C(=O)N[C@@H](CCCN=C(N)N)C(=O)N[C@@H](CCC(N)=O)C(=O)N[C@@H](CCCN=C(N)N)C(=O)N[C@@H](Cc1ccc(O)cc1)C(N)=O)[C@@H](C)O)C(C)C [Peptide 906, N-α-Ac-A S L R H [Bip] L N L V T R Q R Y--NH2] (HELM PEPTIDE1{[ac].A.S.L.R.H.[O=C([C@H](Cc1ccc(-c2ccccc2)cc1)N[*:1])[*:2]].L.N.L.V.T.R.Q.R.Y.[am]}$$$$V2.0)
IC50 [1, 6]: 4.46 nM

Molecule: CC(=O)N[C@@H](C)C(=O)N[C@@H](CO)C(=O)N[C@@H](CC(C)C)C(=O)N[C@@H](CCCNC(=N)N)C(=O)N[C@@H](Cc1c[nH]cn1)C(=O)N[C@@H](Cc1ccc2ccccc2c1)C(=O)N[C@@H](CC(C)C)C(=O)N[C@@H](CC(N)=O)C(=O)N[C@@H](CC(C)C)C(=O)N[C@H](C(=O)N[C@H](C(=O)N[C@@H](CCCNC(=N)N)C(=O)N[C@@H](CCC(N)=O)C(=O)N[C@@H](CCCNC(=N)N)C(=O)N[C@@H](Cc1ccc(O)cc1)C(N)=O)[C@@H](C)O)C(C)C [Peptide 911, N-α-Ac-A S L R H [NaL] L N L V T R Q R Y--NH2] (HELM PEPTIDE1{[ac].A.S.L.R.H.[O=C([C@H](Cc1ccc2ccccc2c1)N[*:1])[*:2]].L.N.L.V.T.R.Q.R.Y.[am]}$$$$V2.0)
IC50 [1]: 0.39 nM

Molecule: CC(=O)N[C@@H](C)C(=O)N[C@@H](CO)C(=O)N[C@@H](CC(C)C)C(=O)N[C@@H](CCCNC(=N)N)C(=O)N[C@@H](Cc1c[nH]cn1)C(=O)N[C@@H](Cc1cccs1)C(=O)N[C@@H](CC(C)C)C(=O)N[C@@H](CC(N)=O)C(=O)N[C@@H](CC(C)C)C(=O)N[C@H](C(=O)N[C@H](C(=O)N[C@@H](CCCNC(=N)N)C(=O)N[C@@H](CCC(N)=O)C(=O)N[C@@H](CCCNC(=N)N)C(=O)N[C@@H](Cc1ccc(O)cc1)C(N)=O)[C@@H](C)O)C(C)C [Peptide 916] (HELM PEPTIDE1{[ac].A.S.L.R.H.[O=C([C@H](Cc1cccs1)N[*:1])[*:2]].L.N.L.V.T.R.Q.R.Y.[am]}$$$$V2.0)
IC50 [1, 6]: 0.095 nM

Molecule: CC(=O)N[C@@H](C)C(=O)N[C@@H](CO)C(=O)N[C@@H](CC(C)C)C(=O)N[C@@H](CCCNC(=N)N)C(=O)N[C@@H](Cc1cnc[nH]1)C(=O)N[C@@H](Cc1ccccc1)C(=O)N[C@@H](CC(C)C)C(=O)N[C@@H](CC(N)=O)C(=O)N[C@@H](CC(C)C)C(=O)N[C@H](C(=O)N[C@H](C(=O)N[C@@H](CCCNC(=N)N)C(=O)N[C@@H](CCC(N)=O)C(=O)N[C@@H](CCCNC(=N)N)C(=O)N[C@@H](Cc1cccs1)C(N)=O)[C@@H](C)O)C(C)C [Peptide 917, M-α-Ac-A S L R H (Phel L N L V T R Q R [Thi]-NH2] (HELM PEPTIDE1{[ac].A.S.L.R.H.F.L.N.L.V.T.R.Q.R.[O=C([C@H](Cc1cccs1)N[*:1])[*:2]].[am]}$$$$V2.0)
IC50 [1, 7]: 4.46 nM

Molecule: AALRHYLNLVARQRY-NH2 [[Ala^23,32]PYY(22-36), A [Ala] L R H Y L N L V [Ala] R Q R Y-NN2]
IC50 [1, 5]: > 10000 nM

Molecule: Ac-ASLRHFLNLVTRQRY-NH2 [N-α-Ac-[Phe^27]PYY(22-36)]
IC50 [1, 5]: 0.8 nM

Molecule: Ac-ASLRHWLNLVTRQRY-NH2 [Peptide 915, N-α-Ac-A S L R H [Trp] L N L V T R Q R Y--NH2]
IC50 [1, 6]: 0.1 nM

Molecule: Ac-FSLRHFLNLVTRQRY-NH2 [Peptide 908, N-α-Ac-[Phe]S L R N [Phe] L N L V T R Q R Y--NH2]
IC50 [1, 7]: 11.2 nM

Molecule: PYY(22-36) (peptide)
IC50 [3]: 4 nM

B2: N-α-Ac-[Phe^27,Thi^36 ]PYY(22-36) (peptide)
peptide: ASLRHFLNLVTRQRX
HELM: PEPTIDE1{[ac].A.S.L.R.H.F.L.N.L.V.T.R.Q.R.[O=C([C@H](Cc1cccs1)N[*:1])[*:2]].[am]}$$$$V2.0
SMILES: CC(=O)N[C@@H](C)C(=O)N[C@@H](CO)C(=O)N[C@@H](CC(C)C)C(=O)N[C@@H](CCCNC(=N)N)C(=O)N[C@@H](Cc1c[nH]cn1)C(=O)N[C@@H](Cc1ccccc1)C(=O)N[C@@H](CC(C)C)C(=O)N[C@@H](CC(N)=O)C(=O)N[C@@H](CC(C)C)C(=O)N[C@H](C(=O)N[C@H](C(=O)N[C@@H](CCCNC(=N)N)C(=O)N[C@@H](CCC(N)=O)C(=O)N[C@@H](CCCNC(=N)N)C(=O)N[C@@H](Cc1cccs1)C(N)=O)[C@@H](C)O)C(C)C
IC50 [4]: 4.46 nM

Molecule: Ac-ASLRH[2Thi]LNLVTRQRY-NH2 [N-α-Ac-[Thi^27 ]PYY(22-36)]
IC50 [2]: 0.095 nM

Molecule: Ac-ASLRH[2Nal]LNLVTRQRY-NH2 [N-α-Ac-[Nal^27 ]PYY(22-36)]
IC50 [2]: 0.39 nM
